Results on one compound are retold here after ChEMBL document CHEMBL4190379 (Bioorg Med Chem Lett, 2018).

In series [1] the test system is Mus musculus. Put plainly: Toxicity in human OPM2 cells xenografted SCID-beige mouse assessed as morbidity at 0.31 mg/kg, po qd administered for 28 days starting from 18 days post tumor inoculation. In kind it is organism-based. As to conditions: in vivo. For orientation: Xenograft models place foreign cells or tissue in a host animal.
Another series relates to OPM-2. Put plainly: Antitumor activity against human OPM2 cells xenografted in SCID-beige mouse assessed as inhibition of tumor growth at 0.31 mg/kg, po qd administered for 28 days starting from 18 days post tumor inoculation. In kind it is functional. The note with it: OPM-2, po, read-out: TGI.
The test system of series [2] is Mus musculus. Nature of the series: Toxicity in human OPM2 cells xenografted SCID-beige mouse assessed as body weight loss at 0.62 mg/kg, po qd administered for 28 days starting from 18 days post tumor inoculation. In kind it is organism-based. As to conditions: in vivo.
Series [3] concerns Mus musculus. Put plainly: Dose normalized AUC in mouse at 1 mg/kg, po. In kind it is ADME, organism-based. The note with it: in vivo.

Take `Cn1cc2c3c(c[nH]c3c1=O)CN(c1ccccn1)c1ccc(CS(C)(=O)=O)cc1-2`: the Activity entry in the series on Mus musculus [1] is reported as “Non-Toxic”; with Mus musculus [2], 5%. The inhibition in vivo at 0.31 mg/kg in the series on OPM-2 stood at 60%. The compound also displayed an AUC/dose in the series with Mus musculus [3] of 3.5 µM·h.
